Experimental data: patent EP4291552B1, “MODULATORS OF COMPLEX I” (Boehringer Ingelheim International GmbH, priority 2021, dated 2022)

What follows are compounds tested against Complex I (Bos taurus, UniProt P25708) (assay: Determination of Complex I mediated ROS-inhibition (CI)). Settings: read-out: CI IC50.
Format: biochemical, bovine

`CN1[C@@H]2CC[C@H]1CC(Nc1ccc3c(c1)/C(=C1\COCCN1)C(=O)N3C1CCOCC1)C2` (stereo partly shown) [Compound 101] and `CN1C(=O)/C(=C2/COCCN2)c2cc(NC3CC4CCC(C3)N4C)ccc21` (stereo not shown) [Compound 131] are within 1.5-fold of each other in IC50: 202 nM for the first, 189 nM for the second.

`CC(C)N1C(=O)/C(=C2/COCCN2)c2cc(NC3C[C@H]4CC[C@@H](C3)N4C)ccc21` (stereo partly shown) [Compound 123] gave an IC50 of 916 nM.

Same assay, conditions: read-out: CI IC50; Complex I purified from bovine heart; ROS detected via Amplex Red/horse radish peroxidase; 8 point concentration-response

In the case of `CC(C)Nc1ccc2c(c1)/C(=C1\CCOCCN1)C(=O)N2C1CCOCC1` [Compound 30], the IC50 is reported as 195 nM.

The compounds below were run on mice neuroblastoma cells (HT-22) (assay: Determination of Cellular Protection (HT22)). Settings: Mus musculus, HT-22, 16 h, read-out: HT22 IC50.

`CC(C)Nc1ccc2c(c1)/C(=C1\CCOCCN1)C(=O)N2C1CCOCC1` [Compound 30] and `CC(C)Nc1ccc2c(c1)/C(=C1\COCCCN1)C(=O)N2C1CCOCC1` [Compound 167] are within 1.5-fold of each other in IC50: 135 nM for the first, 134 nM for the second.

`CN1[C@@H]2CC[C@H]1CC(Nc1ccc3c(c1)/C(=C1\COCCN1)C(=O)N3C1CCOCC1)C2` (stereo partly shown) [Compound 101] and `CN1CCC(Nc2ccc3c(c2)/C(=C2\COCCN2)C(=O)N3C2CCOCC2)CC1` [Compound 150] are within 1.5-fold of each other in IC50: 369 nM for the first, 286 nM for the second.

First: CC(C)N1C(=O)/C(=C2/COCCN2)c2cc(NC3C[C@H]4CC[C@@H](C3)N4C)ccc21 (stereo partly shown) [Compound 123]
Second: CN1C(=O)/C(=C2/COCCN2)c2cc(NC3CC4CCC(C3)N4C)ccc21 (stereo not shown) [Compound 131]
The IC50 of the first is 6.5-fold lower: 17 nM for the first, 111 nM for the second. The first is the more potent here.

First: O=C1/C(=C2/COCCN2)c2cc(NC3CCC3)ccc2N1C1CCOCC1 [Compound 132]
Second: O=C1/C(=C2/COCCN2)c2cc(NC3COC3)ccc2N1C1CCOCC1 [Compound 175]
The IC50 of the first is 57-fold lower: 21 nM for the first, 1190 nM for the second.

Going from `CC(C)Nc1ccc2c(c1)/C(=C1\CCCCN1)C(=O)N2C(C)C` [Compound 133] to `CC(=O)N1CCN/C(=C2\C(=O)N(C(C)C)c3ccc(NC(C)C)cc32)C1` [Compound 159], the IC50 rises from 23 nM to 80 nM (3.5-fold).

`CC(C)Nc1ccc2c(c1)/C(=C1\CN(C3CCOCC3)CCN1)C(=O)N2C(C)C` [Compound 134] and `CC(C)Nc1ccc2c(c1)/C(=C1\CCN(C(C)C)CCN1)C(=O)N2C1CCOCC1` [Compound 164] are within 1.5-fold of each other in IC50: 44 nM for the first, 30 nM for the second.

Compared with `CC(C)Nc1ccc2c(c1)/C(=C1\COCCN1)C(=O)N2C1COC1` [Compound 135], `CC(C)Nc1ccc2c(c1)/C(=C1\COCCN1)C(=O)N2C1CCOC1` (stereo not shown) [Compound 163] is 3-fold lower in IC50: 158 nM for the first, 52 nM for the second.

First: CCC(CC)Nc1ccc2c(c1)/C(=C1\COCCN1)C(=O)N2C1COC1 [Compound 136]
Second: COCC(C)Nc1ccc2c(c1)/C(=C1\COCCN1)C(=O)N2C1COC1 (stereo not shown) [Compound 137]
The IC50 of the first is 49-fold lower: 18 nM for the first, 886 nM for the second.

Going from `CC(C)Nc1ccc2c(c1)/C(=C1\COC3(CCN(C(C)C)CC3)CN1)C(=O)N2C(C)C` [Compound 138] to `CC(C)N1CCC2(CC1)CN/C(=C1\C(=O)N(C(C)C)c3ccc(N4C(C)CCC4C)cc31)CO2` (stereo not shown) [Compound 139], the IC50 rises from 6 nM to 18 nM (3-fold).

`O=C1/C(=C2/CCOCCN2)c2cc(NC3CCOC3)ccc2N1C1CCOCC1` (stereo not shown) [Compound 140] and `O=C1/C(=C2/COCCCN2)c2cc(NC3CCOC3)ccc2N1C1CCOCC1` (stereo not shown) [Compound 141] are within 1.5-fold of each other in IC50: 524 nM for the first, 646 nM for the second.

`CC1CCC(C)N1c1ccc2c(c1)/C(=C1\COCCCN1)C(=O)N2C1CCOCC1` (stereo not shown) [Compound 142] and `CC1CCC(C)N1c1ccc2c(c1)/C(=C1\COCCN1)C(=O)N2C1CCOCC1` (stereo not shown) [Compound 156] are within 1.5-fold of each other in IC50: 94 nM for the first, 71 nM for the second.

`CC(Nc1ccc2c(c1)/C(=C1\COCCN1)C(=O)N2C(C)C)c1ccncc1` (stereo not shown) [Compound 143] and `CC(Nc1ccc2c(c1)/C(=C1\COCCN1)C(=O)N2C(C)C)c1nccs1` (stereo not shown) [Compound 144] are within 1.5-fold of each other in IC50: 110 nM for the first, 85 nM for the second.

Going from `CC(C)N1C(=O)/C(=C2/COCCN2)c2cc(NCC(C)(C)C)ccc21` [Compound 145] to `CC(C)CNc1ccc2c(c1)/C(=C1\COCCN1)C(=O)N2C(C)C` [Compound 173], the IC50 rises from 4 nM to 32 nM (8-fold).

Compared with `CC(Nc1ccc2c(c1)/C(=C1\COCCN1)C(=O)N2C1CCOCC1)c1cnccn1` (stereo not shown) [Compound 146], `CC(Nc1ccc2c(c1)/C(=C1\COCCN1)C(=O)N2C1CCOCC1)c1cncnc1` (stereo not shown) [Compound 147] is 2-fold higher in IC50: 211 nM for the first, 422 nM for the second. The first is the more potent here.

First: CC(Nc1ccc2c(c1)/C(=C1\COCCN1)C(=O)N2C1CCOCC1)C1CCC1 (stereo not shown) [Compound 148]
Second: CC1OCCC1Nc1ccc2c(c1)/C(=C1\COCCN1)C(=O)N2C1CCOCC1 (stereo not shown) [Compound 174]
The IC50 of the first is 8.9-fold lower: 16 nM for the first, 143 nM for the second.

First: COC1COCCC1Nc1ccc2c(c1)/C(=C1\COCCN1)C(=O)N2C1CCOCC1 (stereo not shown) [Compound 149]
Second: O=C1/C(=C2/COCCN2)c2cc(NCC3CCOC3)ccc2N1C1CCOCC1 (stereo not shown) [Compound 151]
The IC50 of the first is 16-fold higher: 2940 nM for the first, 184 nM for the second. The second is the more potent here.

Going from `CN1C(=O)/C(=C2/CCN(C(=O)OCc3ccccc3)CCN2)c2cc(N3CCCC3)ccc21` [Compound 152] to `CN1C(=O)/C(=C2/CCN(C3CCOC3)CCN2)c2cc(N3CCCC3)ccc21` (stereo not shown) [Compound 155], the IC50 rises from 47 nM to 214 nM (4.6-fold). The first is the more potent here.

`CN(C)c1ccc2c(c1)/C(=C1\CCCN1)C(=O)N2C1CCN(C(=O)C(F)(F)F)CC1` [Compound 153] and `CC(=O)N1CC[C@H](N2C(=O)/C(=C3/COCCN3)c3cc(NC(C)C)ccc32)C1` [Compound 170] are within 1.5-fold of each other in IC50: 170 nM for the first, 159 nM for the second.

First: CN1C(=O)/C(=C2/COCCN2)c2cc(NC3CCC3)ccc21 [Compound 154]
Second: CC(=O)N1CCC(Nc2ccc3c(c2)/C(=C2\COCCN2)C(=O)N3C(C)C)CC1 [Compound 172]
The IC50 of the first is 16-fold lower: 18 nM for the first, 279 nM for the second. The first is the more potent here.

Going from `CC(C)N1C(=O)C(=C2CCOCC2)c2cc(N)ccc21` [Compound 157] to `CC(C)N1C(=O)C(=C2CCOCC2)c2cc(NC3CCOC3)ccc21` (stereo not shown) [Compound 160], the IC50 falls from 1660 nM to 471 nM (3.5-fold).

First: CC(C)N1C(=O)/C(=C2/CCCCN2)c2cc(N3CCOCC3)ccc21 [Compound 158]
Second: CC(C)N1C(=O)/C(=C2/COCCN2)c2cc(N3CCOCC3)ccc21 [Compound 166]
The IC50 of the first is 3.2-fold higher: 2070 nM for the first, 649 nM for the second. The second is the more potent here.

`CC(C)N1C(=O)/C(=C2/CCCN2C)c2cc(NC3CCC3)ccc21` [Compound 161] and `CCC(CC)Nc1ccc2c(c1)/C(=C1\COCCN1)C(=O)N2C(C)C` [Compound 171] are within 1.5-fold of each other in IC50: 20 nM for the first, 23 nM for the second.

First: CC1CCC(C)N1c1ccc2c(c1)/C(=C1\COCCN1)C(=O)N2C1CCOC1 (stereo not shown) [Compound 162]
Second: O=C1/C(=C2/COCCN2)c2cc(NC3CCOC3)ccc2N1C1CCOC1 (stereo not shown) [Compound 168]
The IC50 of the first is 7.2-fold lower: 61 nM for the first, 439 nM for the second. The first is the more potent here.

`CC(C)Nc1ccc2c(c1)/C(=C1\CC3(CN1)COC3)C(=O)N2C1CCOCC1` [Compound 165] and `O=C(CCO)Nc1ccc2c(c1)/C(=C1\COCCN1)C(=O)N2C1CCOC1` (stereo not shown) [Compound 169] are within 1.5-fold of each other in IC50: 253 nM for the first, 336 nM for the second.
